{
  "source": "paper PMC6117412",
  "about": "“Comprehensive Study of the Enzymatic Catalysis of the Electrochemical Oxygen Reduction Reaction (ORR) by Immobilized Copper Efflux Oxidase (CueO) From Escherichia coli” (Frontiers in Chemistry, 2018)",
  "molecular_target": "T1, CueO (copper efflux oxidase) (Escherichia coli, UniProt P36649)",
  "T1 sequence (P36649 29-516)": "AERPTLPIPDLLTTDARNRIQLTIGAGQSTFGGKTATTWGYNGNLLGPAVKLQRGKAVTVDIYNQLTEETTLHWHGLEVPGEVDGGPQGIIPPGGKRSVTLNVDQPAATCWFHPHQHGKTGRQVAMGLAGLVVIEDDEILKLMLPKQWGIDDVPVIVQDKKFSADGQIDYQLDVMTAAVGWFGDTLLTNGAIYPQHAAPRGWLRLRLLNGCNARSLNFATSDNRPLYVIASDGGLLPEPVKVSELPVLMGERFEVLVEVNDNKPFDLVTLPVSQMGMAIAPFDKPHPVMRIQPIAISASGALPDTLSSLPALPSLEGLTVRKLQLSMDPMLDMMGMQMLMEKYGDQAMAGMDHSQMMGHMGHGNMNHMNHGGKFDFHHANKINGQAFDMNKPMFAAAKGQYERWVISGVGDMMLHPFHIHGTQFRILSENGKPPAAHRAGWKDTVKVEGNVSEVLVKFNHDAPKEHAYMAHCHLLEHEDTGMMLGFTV",
  "conditions": "immobilised on cysteamine-modified polycrystalline Au; O2-saturated phosphate buffer; 100-200 mM fluoride; direct electron transfer",
  "data": [
    {"smiles": "F", "note": "[F−, sodium fluoride]", "values": [
      {"measurement": "cyclic voltammetry and chronoamperometry of electrocatalytic O2 reduction", "result": "the current density decreases significantly after the addition of fluoride"}
    ]}
  ]
}
